Columns and labels:
Sclerotinia sclerotiorum [1] = test: Antifungal activity against Sclerotinia sclerotiorum assessed as inhibition of mycelial growth in volatile phase at 1020 umol/l measured at 20 degC after 5 days; format: functional; details: 120 h, read-out: GI
Sclerotinia sclerotiorum [2] = test: Fungistatic activity in Sclerotinia sclerotiorum assessed as inhibition of mycelial growth in volatile phase at 714 umol/l measured at 20 degC after 5 days relative to control; format: functional; details: 120 h, read-out: GI
Sclerotinia sclerotiorum [3] = test: Antifungal activity against Sclerotinia sclerotiorum assessed as inhibition of mycelial growth in volatile phase at 51 umol/l measured at 20 degC after 5 days; format: functional; details: 120 h, read-out: GI
Sclerotinia sclerotiorum [4] = test: Antifungal activity against Sclerotinia sclerotiorum assessed as inhibition of mycelial growth in volatile phase at 102 umol/l measured at 20 degC after 5 days; format: functional; details: 120 h, read-out: GI
Sclerotinia sclerotiorum [5] = test: Antifungal activity against Sclerotinia sclerotiorum assessed as inhibition of mycelial growth in volatile phase at 714 umol/l measured at 20 degC after 5 days; format: functional; details: 120 h, read-out: GI
Sclerotinia sclerotiorum [6] = test: Fungistatic activity in Sclerotinia sclerotiorum assessed as inhibition of mycelial growth in contact phase at 3065 umol/l measured at 20 degC after 5 days relative to control; format: functional; details: 120 h, read-out: GI
Sclerotinia sclerotiorum [7] = test: Antifungal activity against Sclerotinia sclerotiorum assessed as inhibition of germination in volatile phase at 511 umol/l measured at 20 degC after 5 days; format: functional; details: 120 h
Sclerotinia sclerotiorum [8] = test: In vivo antifungal Sclerotinia sclerotiorum in Pepper (Capsicum annuum L. cv. Sera Demre) assessed as inhibition of mycelial growth in volatile phase at 102 umol/L measured after 10 to 14 weeks; format: functional
Sclerotinia sclerotiorum [9] = test: Fungistatic activity in Sclerotinia sclerotiorum assessed as inhibition of carpogenic germination in volatile phase at 1020 umol/l measured at 20 degC after 5 days relative to control; format: functional; details: 120 h
Sclerotinia sclerotiorum [10] = test: Antifungal activity against Sclerotinia sclerotiorum assessed as inhibition of germination in volatile phase at 307 umol/l measured at 20 degC after 5 days; format: functional; details: 120 h
Sclerotinia sclerotiorum [11] = test: Antifungal activity against Sclerotinia sclerotiorum assessed as inhibition of germination in volatile phase at 51 umol/l measured at 20 degC after 5 days; format: functional; details: 120 h
Sclerotinia sclerotiorum [12] = test: Fungitoxic activity in Sclerotinia sclerotiorum assessed as inhibition of mycelial growth in volatile phase at 1020 umol/l measured at 20 degC after 5 days relative to control; format: functional; details: 120 h, read-out: GI
Sclerotinia sclerotiorum [13] = test: Antifungal activity against Sclerotinia sclerotiorum assessed as inhibition of mycelial growth in volatile phase at 510 umol/l measured at 20 degC after 5 days; format: functional; details: 120 h, read-out: GI
Sclerotinia sclerotiorum [14] = test: Fungistatic activity in Sclerotinia sclerotiorum assessed as inhibition of mycelial growth in contact phase measured at 20 degC after 5 days; format: functional, organism-based; details: 120 h
Sclerotinia sclerotiorum [15] = test: Fungistatic activity in Sclerotinia sclerotiorum assessed as inhibition of carpogenic germination in volatile phase at 510 umol/l measured at 20 degC after 5 days relative to control; format: functional; details: 120 h
Sclerotinia sclerotiorum [16] = test: Antifungal activity against Sclerotinia sclerotiorum assessed as inhibition of mycelial growth in contact phase at 920 umol/l measured at 20 degC after 5 days; format: functional; details: 120 h, read-out: GI
Sclerotinia sclerotiorum [17] = test: Fungistatic activity in Sclerotinia sclerotiorum assessed as inhibition of mycelial growth in volatile phase measured at 20 degC after 5 days; format: functional, organism-based; details: 120 h
Sclerotinia sclerotiorum [18] = test: Antifungal activity against Sclerotinia sclerotiorum assessed as inhibition of germination in volatile phase at 102 umol/l measured at 20 degC after 5 days; format: functional; details: 120 h
Sclerotinia sclerotiorum [19] = test: Fungistatic activity in Sclerotinia sclerotiorum assessed as inhibition of carpogenic germination in volatile phase at 51 umol/l measured at 20 degC after 5 days relative to control; format: functional; details: 120 h
Sclerotinia sclerotiorum [20] = test: Fungistatic activity in Sclerotinia sclerotiorum assessed as inhibition of carpogenic germination in volatile phase at 102 umol/l measured at 20 degC after 5 days relative to control; format: functional; details: 120 h
Sclerotinia sclerotiorum [21] = test: In vivo antifungal Sclerotinia sclerotiorum in Pepper (Capsicum annuum L. cv. Sera Demre) assessed as inhibition of mycelial growth in volatile phase at 204 umol/L measured after 10 to 14 weeks; format: functional
Sclerotinia sclerotiorum [22] = test: Antifungal activity against Sclerotinia sclerotiorum assessed as inhibition of mycelial growth in contact phase at 3065 umol/l measured at 20 degC after 5 days; format: functional; details: 120 h, read-out: GI
Sclerotinia sclerotiorum [23] = test: Antifungal activity against Sclerotinia sclerotiorum assessed as inhibition of mycelial growth in contact phase at 1022 umol/l measured at 20 degC after 5 days; format: functional; details: 120 h, read-out: GI
Sclerotinia sclerotiorum [24] = test: Antifungal activity against Sclerotinia sclerotiorum assessed as inhibition of mycelial growth in contact phase at 2043 umol/l measured at 20 degC after 5 days; format: functional; details: 120 h, read-out: GI
Sclerotinia sclerotiorum [25] = test: Antifungal activity against Sclerotinia sclerotiorum assessed as inhibition of germination in volatile phase at 1022 umol/l measured at 20 degC after 5 days; format: functional; details: 120 h
Sclerotinia sclerotiorum [26] = test: Antifungal activity against Sclerotinia sclerotiorum assessed as inhibition of mycelial growth in contact phase at 715 umol/l measured at 20 degC after 5 days; format: functional; details: 120 h, read-out: GI

In the case of `C=CCN=C=S` [ALLYL ISOTHIOCYANATE], the inhibition of growth at 1020 µM (Sclerotinia sclerotiorum [1]) is reported as 100%, the inhibition of growth at 714 µM (Sclerotinia sclerotiorum [2]) is reported as 100% and the inhibition of growth at 51 µM (Sclerotinia sclerotiorum [3]) is reported as 45.7%. The inhibition of growth at 102 µM (Sclerotinia sclerotiorum [4]) was 50.7%, the inhibition of growth at 714 µM (Sclerotinia sclerotiorum [5]) was 100% and the inhibition of growth at 3065 µM (Sclerotinia sclerotiorum [6]) was 100%. For the same molecule, the inhibition at 511 µM (Sclerotinia sclerotiorum [7]) was 0%, the inhibition in vivo at 102 µM (Sclerotinia sclerotiorum [8]) was 76.7% and the inhibition at 1020 µM (Sclerotinia sclerotiorum [9]) was 75%. It also gave an inhibition at 307 µM (Sclerotinia sclerotiorum [10]) of 0%, an inhibition at 51 µM (Sclerotinia sclerotiorum [11]) of 0% and an inhibition of growth at 1020 µM (Sclerotinia sclerotiorum [12]) of 100%. It also gave an inhibition of growth at 510 µM (Sclerotinia sclerotiorum [13]) of 87%, an EC50 (Sclerotinia sclerotiorum [14]) of 1060 µM and an inhibition at 510 µM (Sclerotinia sclerotiorum [15]) of 67.5%. The inhibition of growth at 920 µM (Sclerotinia sclerotiorum [16]) was 37.7%, the EC50 (Sclerotinia sclerotiorum [17]) was 71.5 µM and the inhibition at 102 µM (Sclerotinia sclerotiorum [18]) was 0%. It also gave an inhibition at 51 µM (Sclerotinia sclerotiorum [19]) of 60%, an inhibition at 102 µM (Sclerotinia sclerotiorum [20]) of 67.5% and an inhibition in vivo at 204 µM (Sclerotinia sclerotiorum [21]) of 81.7%. The inhibition of growth at 3065 µM (Sclerotinia sclerotiorum [22]) was 100%, the inhibition of growth at 1022 µM (Sclerotinia sclerotiorum [23]) was 45.5% and the inhibition of growth at 2043 µM (Sclerotinia sclerotiorum [24]) was 77%. For the same molecule, the inhibition at 1022 µM (Sclerotinia sclerotiorum [25]) was 0% and the inhibition of growth at 715 µM (Sclerotinia sclerotiorum [26]) was 32%.
